The values below come from PMC3923901 (Journal of structural and functional genomics, 2013).

In data set [1] the target is T1, SACOL2570 (putative galactoside O-acetyltransferase) (Staphylococcus aureus, UniProt Q5HCZ5). Briefly: ITC, […] stoichiometry. In kind it is binding. (In general: In ITC the heat of successive injections is recorded.)
Data set [2] addresses T1, SACOL2570 (putative galactoside O-acetyltransferase). Briefly: crystal structure. In kind it is binding.
The data set “crystal structure” concerns the molecule itself. Briefly: crystal structure.

On to `CC(=O)SCCNC(=O)CCNC(=O)[C@H](O)C(C)(C)COP(=O)(O)OP(=O)(O)OC[C@H]1O[C@@H](n2cnc3c(N)ncnc32)[C@H](O)[C@@H]1OP(=O)(O)O` [AcCoA], for which the Kd (in general, a measure of binding affinity in units of concentration) in data set [1] came out at 460 ± 35 µM.

With `CC(C)(COP(=O)(O)OP(=O)(O)OC[C@H]1O[C@@H](n2cnc3c(N)ncnc32)[C@H](O)[C@@H]1OP(=O)(O)O)[C@@H](O)C(=O)NCCC(=O)NCCS` [CoA], the Kd in data set [2] is 660 ± 13 µM.

B1: putative galactoside O-acetyltransferase SACOL2570 from Staphylococcus aureus subsp. COL (enzyme)
chain: MTEKEKMLAEKWYDANFDQYLINERARAKDICFELNHTRPSATNKRKELIDQLFQTTTDNVSISIPFDTDYGWNVKLGKNVYVNTNCYFMDGGQITIGDNVFIGPNCGFYTATHPLNFHHRNEGFEKAGPIHIGSNTWFGGHVAVLPGVTIGEGSVIGAGSVVTKDIPPHSLAVGNPCKVVRKIDNDLPSETLNDETIK
modifications: selenomethionine (Se-Met-SACOL2570) in the protein of the apo crystals (PDB 3FTT) only
With B1, in “crystal structure”, the stoichiometry N – broadly, a count of units in the complex or per binding partner – was 3.
